Structures can show the parent of a compound that is named as a salt.
Tested on: recombinant guanylate cyclase reporter cell line
Assay: Action on recombinant guanylate cyclase reporter cell line (MEC)
Type: cell-based
Settings: in some cases mean values obtained from individual determinations
Method in brief: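 Cell-based reporter assay with recombinant guanylate cyclase expressed in a reporter cell line, per a published method. Activity reported as minimal effective concentration (MEC), in some cases as the mean of individual determinations.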

| Structure (SMILES) | minimal effective concentration [µM] |
| --- | --- |
| Cc1nc2c(OCc3c(F)cccc3F)cccn2c1C(=O)NCCCO [Example 22, 8-[(2,6-difluorobenzyl)oxy]-N-(3-hydroxy-propyl)-2-methylimidazo[1,2-a]pyridine-3-carboxamide] | 1 |
| Cc1nc2c(OCc3c(F)cccc3F)cccn2c1C(=O)NCC(O)COc1ccccc1 (stereo not drawn) [Example 137, 8-[(2,6-difluorobenzyl)oxy]-N-(2-hydroxy-3-phenoxypropyl)-2-methylimidazo[1,2-a]-pyridine-3-carboxamide] | 3 |
| Cc1cc(OCCC(C(F)(F)F)C(F)(F)F)c2nc(C)c(C(=O)NC3c4ccccc4CC3O)n2c1 (stereo not drawn) [Example 172, N-(2-Hydroxy-2,3-dihydro-1H-inden-1-yl)-2,6-dimethyl-8-[4,4,4-trifluoro-3-(trifluoromethyl)-butoxy]imidazo[1,2-a]pyridine-3-carboxamide] | 1 |
| Cc1nc2c(OCc3c(F)cccc3F)cc(Cl)cn2c1C(=O)N[C@@H](CO)CCCO [Example 127, 6-Chloro-8-[(2,6-difluorobenzyl)oxy]-N-[(2R)-1,5-dihydroxypentan-2-yl]-2-methylimidazo[1,2-a]-pyridine-3-carboxamide] | 0.3 |
| CCCC[C@H](CO)NC(=O)c1c(C)nc2c(OCc3c(F)cccc3F)cc(F)cn12 [Example 132, 8-[(2,6-difluorobenzyl)oxy]-6-fluoro-N-[(2R)-1-hydroxyhexan-2-yl]-2-methylimidazo[1,2-a]pyridine-3-carboxamide] | 0.03 |
| COC(=O)[C@H](CO)NC(=O)c1c(C)nc2c(OCc3c(F)cccc3F)cccn12 [Example 164, Methyl N-({8-[(2,6-difluorobenzyl)oxy]-2-methylimidazo[1,2-a]pyridin-3-yl}carbonyl)-L-serinate] | 0.2 |
| CCC(O)CNC(=O)c1c(C)nc2c(OCc3c(F)cccc3F)cccn12 (racemic) [Example 30, (rac)-8-[(2,6-difluorobenzyl)oxy]-N-(2-hydroxybutyl)-2-methylimidazo[1,2-a]pyridine-3-carboxamide] | 0.3 |
| CCC(CO)NC(=O)c1c(C)nc2c(OCC3CCCCC3)cccn12 (racemic) [Example 69, (rac)-8-(cyclohexylmethoxy)-N-(1-hydroxybutan-2-yl)-2-methylimidazo[1,2-a]pyridine-3-carboxamide formate] | 0.1 |
| Cc1cc(OCC2CC(F)(F)C2)c2nc(C)c(C(=O)NC(CCCC(F)(F)F)C(C)(C)O)n2c1 (racemic) [Example 176, rac-8-[(3,3-Difluorocyclobutyl)methoxy]-2,6-dimethyl-N-(7,7,7-trifluoro-2-hydroxy-2-methylheptan-3-yl)imidazo[1,2-a]pyridine-3-carboxamide] | 3 |
| CCCC[C@H](CO)NC(=O)c1c(C)nc2c(OCc3c(Cl)cccc3Cl)cccn12 [Example 8, 8-[(2,6-dichlorobenzyl)oxy]-N-[(2R)-1-hydroxyhexan-2-yl]-2-methylimidazo[1,2-a]pyridine-3-carboxamide] | 0.3 |
| Cc1nc2c(OCc3c(Cl)cccc3Cl)cccn2c1C(=O)NC(CO)CO [Example 53, 8-[(2,6-dichlorobenzyl)oxy]-N-(1,3-dihydroxypropan-2-yl)-2-methylimidazo[1,2-a]-pyridine-3-carboxamide] | 10 |
| CCCC[C@H](CO)NC(=O)c1c(C)nc2c(OCc3c(F)ccc(F)c3F)cccn12 [Example 2, N-[(2R)-1-hydroxyhexan-2-yl]-2-methyl-8-[(2,3,6-trifluorobenzyl)oxy]imidazo[1,2-a]pyridine-3-carboxamide] | 0.03 |
| Cc1nc2c(OCc3c(F)cccc3F)cccn2c1C(=O)NC(CO)CCCC(F)(F)F (racemic) [Example 114, rac-8-[(2,6-difluorobenzyl)oxy]-2-methyl-N(6,6,6-trifluoro-1-hydroxyhexan-2-yl)imidazo[1,2-a]pyridine-3-carboxamide] | 0.03 |
| Cc1nc2c(OCC3CCCCC3)cccn2c1C(=O)N[C@H]1CCC[C@@H]1O (racemic) [Example 71, (rac)-8-(cyclohexylmethoxy)-N-[trans-2-hydroxycyclopentyl]-2-methylimidazo[1,2-a]-pyridine-3-carboxamide] | 0.1 |
| Cc1nc2c(OCc3c(F)cccc3F)cccn2c1C(=O)N[C@@H](CO)CC(C)C [Example 39, 8-[(2,6-Difluorobenzyl)oxy]-N-[(2R)-1-hydroxy-4-methylpentan-2-yl]-2-methylimidazo[1,2-a]-pyridine-3-carboxamide] | 0.03 |
| Cc1nc2c(OCc3c(F)cccc3F)cccn2c1C(=O)NCC(C)(C)CO [Example 41, 8-[(2,6-difluorobenzyl)oxy]-N-(3-hydroxy-2,2-dimethylpropyl)-2-methylimidazo[1,2-a]-pyridine-3-carboxamide] | 3 |
| Cc1nc2c(OCC3CCCCC3)cccn2c1C(=O)NCCCCO [Example 74, 8-(cyclohexylmethoxy)-N-(4-hydroxybutyl)-2-methylimidazo[1,2-a]pyridine-3-carboxamide] | 0.2 |

| Structure (SMILES) | minimal effective concentration [µM] |
| --- | --- |
| Cc1nc2c(OCc3c(F)cccc3F)cccn2c1C(=O)N[C@@H](CO)Cc1ccccc1 [Example 38, 8-[(2,6-difluorobenzyl)oxy]-N-[(2R)-1-hydroxy-3-phenylpropan-2-yl]-2-methylimidazo[1,2-a]-pyridine-3-carboxamide] | 0.3 |
| CCCC[C@H](CO)NC(=O)c1c(C)nc2c(OCc3c(F)cccc3F)cc(Cl)cn12 [Example 131, 6-chloro-8-[(2,6-difluorobenzyl)oxy]-N-[(2R)-1-hydroxyhexan-2-yl]-2-methylimidazo[1,2-a]pyridine-3-carboxamide] | 0.01 |
| CCc1nc2c(OCC3CCC3)cccn2c1C(=O)N[C@@H](C)CO [Example 58, 8-(cyclobutylmethoxy)-2-ethyl-N-[(2S)-1-hydroxypropan-2-yl]imidazo[1,2-a]pyridine-3-carboxamide formic acid salt] | 3 |
| CCCC[C@H](CO)NC(=O)c1c(C)nc2c(OCc3c(F)cccc3F)cc(C)cn12 [Example 133, 8-[(2,6-difluorobenzyl)oxy]-N-[(2R)-1-hydroxyhexan-2-yl]-2,6-dimethylimidazo[1,2-a]pyridine-3-carboxamide] | 0.01 |
| Cc1nc2c(OCc3c(F)cccc3F)cccn2c1C(=O)NCCC(C)O (racemic) [Example 28, (rac)-8-[(2,6-difluorobenzyl)oxy]-N-(3-hydroxybutyl)-2-methylimidazo[1,2-a]pyridine-3-carboxamide] | 0.65 |
| CCCC[C@H](CO)NC(=O)c1c(C)nc2c(OCc3c(F)cccc3F)cc(CC)cn12 [Example 60, 8-[(2,6-difluorobenzyl)oxy]-6-ethyl-N-[(2R)-1-hydroxyhexan-2-yl]-2-methylimidazo[1,2-a]pyridine-3-carboxamide] | 0.1 |
| CCCC[C@H](CO)NC(=O)c1c(C)nc2c(OCc3c(F)cccc3F)cc(N3CCCC3)cn12 [Example 64, 8-[(2,6-difluorobenzyl)oxy]-N-[(2R)-1-hydroxyhexan-2-yl]-2-methyl-6-(pyrrolidin-1-yl)imidazo[1,2-a]pyridine-3-carboxamide] | 3 |
| C#Cc1cc(OCc2c(F)cccc2F)c2nc(C)c(C(=O)N[C@@H](CO)CCCC)n2c1 [Example 126, 8-[(2,6-Difluorobenzyl)oxy]-6-ethynyl-N-[(2R)-1-hydroxyhexan-2-yl]-2-methylimidazo[1,2-a]-pyridine-3-carboxamide] | 0.1 |
| Cc1nc2c(OCc3ccccc3)cccn2c1C(=O)NCCC1(O)CCCC1 [Example 48, 8-(benzyloxy)-N-[2-(1-hydroxycyclopentyl)ethyl]-2-methylimidazo[1,2-a]pyridine-3-carboxamide] | 1 |
| Cc1nc2c(OCc3c(F)cccc3F)cccn2c1C(=O)N[C@@H](CO)C(C)(C)O [Example 165, 8-[(2,6-Difluorobenzyl)oxy]-N-[(2S)-1,3-dihydroxy-3-methylbutan-2-yl]-2-methylimidazo[1,2-a]-pyridine-3-carboxamide] | 1 |
| Cc1nc2c(OCc3c(F)cccc3F)cccn2c1C(=O)NC(CO)c1ccccn1 (racemic) [Example 119, rac-8-[(2,6-difluorobenzyl)oxy]-N-[2-hydroxy-1-(pyridin-2-yl)ethyl]-2-methylimidazo[1,2-a]-pyridine-3-carboxamide] | 0.3 |
| Cc1cccc(COc2cccn3c(C(=O)NC(CO)CO)c(C)nc23)c1Cl [Example 52, 8-[(2-chloro-3-methylbenzyl)oxy]-N-(1,3-dihydroxypropan-2-yl)-2-methylimidazo[1,2-a]-pyridine-3-carboxamide] | 10 |
| CCCC[C@H](CO)NC(=O)c1c(C)nc2c(OCc3ccccc3)cccn12 [Example 16, 8-(Benzyloxy)-N-[(2R)-1-hydroxyhexan-2-yl]-2-methylimidazo[1,2-a]pyridine-3-carboxamide] | 1 |
| Cc1nc2c(OCc3c(F)cccc3F)cccn2c1C(=O)N[C@@H](CO)c1ccccc1 (racemic) [Example 104, rac-8-[(2,6-difluorobenzyl)oxy]-N-[(1R)-2-hydroxy-1-phenylethyl]-2-methylimidazo[1,2-a]pyridine-3-carboxamide trifluoroacetate] | 0.1 |
| Cc1nc2c(OCc3c(F)cccc3F)cccn2c1C(=O)NC(CO)CO [Example 26, 8-[(2,6-difluorobenzyl)oxy]-N-(1,3-dihydroxy-propan-2-yl)-2-methylimidazo[1,2-a]pyridine-3-carboxamide] | 2 |
| CCCC[C@H](CO)NC(=O)c1c(C2CC2)nc2c(OCc3c(F)cccc3F)cccn12 [Example 134, 2-cyclopropyl-8-[(2,6-difluorobenzyl)oxy]-N-[(2R)-1-hydroxyhexan-2-yl]imidazo[1,2-a]-pyridine-3-carboxamide] | 0.3 |

Source: patent US8778964B2, “Hydroxy-substituted imidazo[1,2-a]-pyridinecarboxamides and their use” (Bayer Pharma Aktiengesellschaft, priority 2012, dated 2014)
